Results published in the CheMixHub viscosity set.

Test: xn = mol fraction of the nth substance listed

CCc1ccccc1 + CO
viscosity [mPa·s], 101 kPa
Settings	x2 = 0.1406	x2 = 0.3326	x2 = 0.5278	x2 = 0.6721	x2 = 0.7828	x2 = 0.8113	x2 = 0.8848
298.15 K	0.6135	0.6134	0.6258	0.6323	0.6247	0.618	0.5991
308.15 K	0.5262	0.5283	0.5395	0.5368	0.525	0.5202	0.5052

Clc1cccc2ccccc12 + CO
viscosity [mPa·s], 101.33 kPa
Settings	x1 = 0.0998	x1 = 0.1992	x1 = 0.302	x1 = 0.4003	x1 = 0.4961	x1 = 0.5978	x1 = 0.6961	x1 = 0.801	x1 = 0.8922
298.15 K	0.814	1.096	1.372	1.617	1.847	2.064	2.237	2.454	2.67
303.15 K	0.75	1.002	1.249	1.468	1.672	1.863	2.012	2.197	2.385
308.15 K	0.689	0.918	1.142	1.336	1.516	1.683	1.818	1.984	2.157

COCCOCCOCCOCCOC + COC(=O)OC
298.15 K, 101.33 kPa
Settings	viscosity [mPa·s]
x1 = 0.0013	0.595
x1 = 0.0051	0.603
x1 = 0.0117	0.623
x1 = 0.0228	0.642
x1 = 0.0349	0.673
x1 = 0.0584	0.726
x1 = 0.0861	0.792
x1 = 0.1164	0.875
x1 = 0.1595	0.994
x1 = 0.2094	1.132
x1 = 0.3042	1.414
x1 = 0.3316	1.499
x1 = 0.3593	1.576
x1 = 0.3994	1.703
x1 = 0.4379	1.815
x1 = 0.477	1.945
x1 = 0.5477	2.159
x1 = 0.6174	2.382
x1 = 0.6892	2.606
x1 = 0.7492	2.781
x1 = 0.7839	2.888
x1 = 0.8643	3.113
x1 = 0.9142	3.237
x1 = 0.949	3.324
x1 = 0.9732	3.369

Clc1ccccc1 + COC(=O)OC
Settings	viscosity [mPa·s]
298.15 K, 101 kPa, x2 = 0.238	0.7093

CCCC(C)C + COC(C)(C)C
298.15 K, 101.33 kPa
Settings	viscosity [mPa·s]
x2 = 0.0969	0.2794
x2 = 0.2016	0.2825
x2 = 0.3021	0.2858
x2 = 0.4006	0.2902
x2 = 0.5007	0.2956
x2 = 0.5985	0.3014
x2 = 0.6965	0.3079
x2 = 0.7978	0.3154
x2 = 0.8845	0.3228

Clc1ccccc1 + COC(C)(C)C
viscosity [mPa·s], 101.33 kPa
Settings	x2 = 0.0948	x2 = 0.1898	x2 = 0.2929	x2 = 0.3832	x2 = 0.4974	x2 = 0.6209	x2 = 0.7014	x2 = 0.8089	x2 = 0.9102
293.15 K	0.7752	0.7379	0.6754	0.6443	0.5825	0.5368	0.4905	0.456	0.4191
298.15 K	0.7335	0.6981	0.6506	0.6036	0.5697	0.5019	0.4658	0.4246	0.3945

COCCOCCOCCOCCOC + COC(C)=O
viscosity [mPa·s], 101 kPa
Settings	298.15 K	308.15 K	318.15 K
x1 = 0.0089	0.382	0.344	0.325
x1 = 0.0206	0.404	0.364	0.339
x1 = 0.0384	0.439	0.392	0.365
x1 = 0.0758	0.519	0.459	0.42
x1 = 0.1174	0.61	0.539	0.484
x1 = 0.1646	0.729	0.63	0.56
x1 = 0.231	–	0.773	0.677
x1 = 0.2993	1.096	0.924	0.749
x1 = 0.3846	1.349	1.11	0.947
x1 = 0.453	1.581	1.294	1.09
x1 = 0.5398	1.854	1.503	1.254
x1 = 0.6662	2.272	1.832	1.504
x1 = 0.719	2.475	1.961	1.624
x1 = 0.7865	2.669	2.143	1.751
x1 = 0.8413	2.902	2.278	1.858
x1 = 0.8673	2.957	2.358	1.919
x1 = 0.8983	3.08	2.43	1.956
x1 = 0.9205	3.127	2.478	1.991
x1 = 0.9565	3.266	2.547	2.058

Clc1ccccc1 + COC(C)=O
viscosity [mPa·s], 101 kPa
Settings	298.15 K	308.15 K
x2 = 0.0395	0.734	0.662
x2 = 0.1406	0.685	0.619
x2 = 0.2347	0.642	0.581
x2 = 0.3286	0.602	0.547
x2 = 0.4168	0.566	0.516
x2 = 0.4647	0.548	0.5
x2 = 0.5282	0.525	0.479
x2 = 0.6291	0.491	0.448
x2 = 0.7341	0.458	0.418
x2 = 0.8394	0.427	0.39
x2 = 0.9331	0.401	0.367
